Results: patent US10329294B2, “Pyrazolopyrimidine inhibitors of IRAK4 activity” (MERCK SHARP & DOHME CORP., priority 2015, dated 2019)
Counter-ions that a name gives are not always drawn.

The molecules below were run against IRAK4 (Homo sapiens (Human), UniProt Q9NWZ3) (assay: IRAK4 Kinase Assay). Details: IMAP fluorescence polarization, 0.5 nM GST tagged IRAK4, 100 μM ATP, 30 minutes at 25° C.; read-out: IRAK4 IC50.
Format: biochemical
Method: The kinase activity of IRAK4 is determined by its ability to catalyze the phosphorylation of a fluorescent polypeptide substrate. The extent of phosphorylation is measured using the IMAP technology (Molecular Devices) where the phosphorylated fluorescent substrate binds to the large M(III)-based nanoparticles which reduces the rotational speed of the substrate and thus increases its fluorescent polarization (FP).
20 μL reaction mixture contains 10 mM TriHCl, pH 7.2, 0.5 nM GST tagged IRAK4 (SignalChem), 100 nM fluorescent peptide substrate (RP7030, Molecular Devices), 100 μM ATP, 1 mM DDT, 1 mM MgCl2, and 0.01% Tween 20. The reaction is initiated by the addition of ATP. After incubation for 30 minutes at 25° C., 60 μL of Progressive IMAP Reagent (Molecular Devices) is added to stop the reaction. Change in RP7030's FP is determined by a FP reader (Analyst HT, LJL BioSystems).

Chain of IRAK4 (Q9NWZ3 whole entry): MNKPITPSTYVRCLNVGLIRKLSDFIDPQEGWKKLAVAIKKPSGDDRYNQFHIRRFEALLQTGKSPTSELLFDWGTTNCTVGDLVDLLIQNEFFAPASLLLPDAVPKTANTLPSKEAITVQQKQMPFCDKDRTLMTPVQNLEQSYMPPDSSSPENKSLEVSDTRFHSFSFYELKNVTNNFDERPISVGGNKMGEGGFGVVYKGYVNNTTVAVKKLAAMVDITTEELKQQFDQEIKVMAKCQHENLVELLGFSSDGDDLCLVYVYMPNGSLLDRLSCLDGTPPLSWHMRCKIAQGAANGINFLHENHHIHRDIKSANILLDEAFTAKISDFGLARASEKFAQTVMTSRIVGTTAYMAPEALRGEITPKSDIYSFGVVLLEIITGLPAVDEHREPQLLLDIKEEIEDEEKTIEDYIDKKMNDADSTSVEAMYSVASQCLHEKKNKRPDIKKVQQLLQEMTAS

Row | SMILES | IC50 [nM]
1 | N[C@@H]1CCCC[C@@H]1Nc1ccn2ncc(C(=O)Nc3cnn(-c4cccnc4)c3)c2n1 [Example 278, 5-{[(1S,2R)-2-aminocyclohexyl]amino}-N-(1-pyridin-3-yl-1H-pyrazol-4-yl)pyrazolo[1,5-a]pyrimidine-3-carboxamide trifluoroacetate] | 9
2 | N[C@H]1CCCC[C@H]1Nc1ccn2ncc(C(=O)Nc3cn(C4CC4)nc3C(F)(F)F)c2n1 [Example 293, 5-{[(1R,2S)-2-aminocyclohexyl]amino}-N-[1-cyclopropyl-3-(trifluoromethyl)-1H-pyrazol-4-yl]pyrazolo[1,5-a]pyrimidine-3-carboxamide trifluoroacetate] | 0.4
3 | Cn1cc(NC(=O)c2cnn3ccc(N4CCC(F)(F)[C@@H](N)C4)nc23)c(C(F)(F)F)n1 (single isomer, unassigned) [Example 188, 5-[(4R)- or (4S)-(3-amino-4,4-difluoropiperidin-1-yl)-N-[1-methyl-3-(trifluoromethyl)-1H-pyrazol-4-yl]pyrazolo[1,5-a]pyrimidine-3-carboxamide trifluoroacetate] | 60
4 | Cn1cc(NC(=O)c2cnn3ccc(N4C[C@H]5CNC[C@@H]4C5)nc23)c(C(F)(F)F)n1 (single isomer, unassigned) [Example 84, 5-[(1S,5R)- or (1R,5S)-3,6-diazabicyclo[3.2.1]oct-6-yl]-N-[1-methyl-3-(trifluoromethyl)-1H-pyrazol-4-yl]pyrazolo[1,5-a]pyrimidine-3-carboxamide] | 158
5 | Cn1cc(NC(=O)c2cnn3ccc(N[C@H]4CNCC[C@H]4F)nc23)c(C(F)(F)F)n1 (single isomer, unassigned) [Example 231, 5-{[(3R,4S)- or (3S,4R)-4-fluoropiperidin-3-yl]amino}-N-[1-methyl-3-(trifluoromethyl)-1H-pyrazol-4-yl]pyrazolo[1,5-a]pyrimidine-3-carboxamide] | 47
6 | O=C(Nc1ccccc1C(F)F)c1cnn2ccc(N3CCCNCC3)nc12 [Example 130, 5-(1,4-diazepan-1-yl)-N-[2-(difluoromethyl)phenyl] pyrazolo[1,5-a]pyrimidine-3-carboxamide] | 8810
7 | Cn1cc(NC(=O)c2cnn3ccc(N4CC5CNC(C5)C4)nc23)c(C(F)F)n1 (stereo not shown) [Example 182, 5-[(3,6-diazabicyclo[3.2.1]oct-3-yl]-N-[3-(difluoromethyl)-1-methyl-1H-pyrazol-4-yl]pyrazolo[1,5-a]pyrimidine-3-carboxamide trifluoroacetate] | 14
8 | N[C@H]1CCCC[C@H]1Nc1ccn2ncc(C(=O)Nc3cscc3C(F)F)c2n1 [Example 119, 5-{[(1R,2S)-2-aminocyclohexyl]amino}-N-[4-(difluoromethyl)thiophen-3-yl]pyrazolo[1,5-a]pyrimidine-3-carboxamide trifluoroacetate] | 0.5
9 | N#Cc1ccccc1NC(=O)c1cnn2ccc(N[C@@H]3CCCNC3)nc12 [Example 270, N-(2-cyanophenyl)-5-[(3R)-piperidin-3-ylamino]pyrazolo[1,5-a]pyrimidine-3-carboxamide trifluoroacetate] | 10
10 | N[C@@H]1[C@H](Nc2ccn3ncc(C(=O)Nc4ccccc4Cl)c3n2)CCCC1(F)F [Example 106, 5-{[(1R,2R)-2-amino-3,3-difluorocyclohexyl]amino}-N-(2-chlorophenyl)pyrazolo[1,5-a]pyrimidine-3-carboxamide trifluoroacetate] | 788
11 | N#Cc1cscc1NC(=O)c1cnn2ccc(N3CC4CCC3CN4)nc12 (stereo not shown) [Example 145, N-(4-cyanothiophen-3-yl)-5-(2,5-diazabicyclo[2.2.2]oct-2-yl)pyrazolo[1,5-a]pyrimidine-3-carboxamide trifluoroacetate] | 165
12 | O=C(Nc1ccsc1Cl)c1cnn2ccc(N[C@@H]3CCCC[C@@H]3O)nc12 [Example 185, N-(2-chlorothiophen-3-yl)-5-{[(1R,2S)-2-hydroxycyclohexyl]amino} pyrazolo[1,5-a]pyrimidine-3-carboxamide] | 1580
13 | Cn1cc(NC(=O)c2cnn3ccc(N4CC[C@@H]5C[C@H]4CN5)nc23)c(C(F)(F)F)n1 [Example 213, 5-[(1S,5R)-2,6-diazabicyclo[3.2.1]oct-2-yl]-N-[1-methyl-3-(trifluoromethyl)-1H-pyrazol-4-yl]pyrazolo[1,5-a]pyrimidine-3-carboxamide] | 3
14 | N[C@@H]1[C@H](Nc2ccn3ncc(C(=O)Nc4ccsc4Cl)c3n2)CCCC1(F)F [Example 118, 5-{[(1R,2R)-2-amino-3,3-difluorocyclohexyl]amino}-N-(2-chlorothiophen-3-yl)pyrazolo[1,5-a]pyrimidine-3-carboxamide trifluoroacetate] | 342
15 | N#Cc1ccccc1NC(=O)c1cnn2ccc(N3CCCNCC3)nc12 [Example 273, N-(2-cyanophenyl)-5-(1,4-diazepan-1-yl)pyrazolo[1,5-a]pyrimidine-3-carboxamide trifluoroacetate] | 1360
16 | Cn1cc(NC(=O)c2cnn3ccc(N[C@@H]4CCCC[C@@H]4N)nc23)c(Cl)n1 [Example 149, 5-{[(1R,2S)-2-aminocyclohexyl]amino}-N-(3-chloro-1-methyl-1H-pyrazol-4-yl)pyrazolo[1,5-a]pyrimidine-3-carboxamide trifluoroacetate] | 0.5
17 | O=C(Nc1ccsc1Br)c1cnn2ccc(N[C@@H]3CCCC[C@@H]3O)nc12 [Example 196, N-(2-bromothiophen-3-yl)-5-{[(1R,2S)-2-hydroxycyclohexyl]amino} pyrazolo[1,5-a]pyrimidine-3-carboxamide trifluoroacetate] | 2650
18 | Cn1cc(NC(=O)c2cnn3ccc(N4C[C@@H]5CC[C@H]4CN5)nc23)c(C#N)n1 (single isomer, unassigned) [Example 156, N-(3-cyano-1-methyl-1H-pyrazol-4-yl)-5-[(1S,4S)- or (1R,4R)-2,5-diazabicyclo[2.2.2]oct-2-yl]pyrazolo[1,5-a]pyrimidine-3-carboxamide trifluoroacetate] | 41
19 | N[C@H]1CCCC[C@H]1Nc1ccn2ncc(C(=O)Nc3cscc3Cl)c2n1 [Example 168, 5-{[(1R,2S)-2-aminocyclohexyl]amino}-N-(4-chlorothiophen-3-yl)pyrazolo[1,5-a]pyrimidine-3-carboxamide trifluoroacetate] | 1
20 | N[C@@H]1[C@H](Nc2ccn3ncc(C(=O)Nc4cn(CC(F)(F)F)nc4C(F)(F)F)c3n2)CCCC1(F)F [Example 69, 5-{[(1R,2R)-2-amino-3,3-difluorocyclohexyl]amino}-N-[1-(2,2,2-trifluoroethyl)-3-(trifluoromethyl)-1H-pyrazol-4-yl]pyrazolo[1,5-a]pyrimidine-3-carboxamide trifluoroacetate] | 927
21 | Cn1cc(NC(=O)c2cnn3ccc(N4CCCNCC4)nc23)c(C(F)F)n1 [Example 87, 5-(1,4-diazepan-1-yl)-N-[3-(difluoromethyl)-1-methyl-1H-pyrazol-4-yl]pyrazolo[1,5-a]pyrimidine-3-carboxamide trifluoroacetate] | 4
22 | O=C(Nc1cn(CC(F)F)nc1C(F)(F)F)c1cnn2ccc(N3CC4CCC3CN4)nc12 (stereo not shown) [Example 65, 5-(2,5-diazabicyclo[2.2.2]oct-2-yl)-N-[1-(2,2-difluoroethyl)-3-(trifluoromethyl)-1H-pyrazol-4-yl]pyrazolo[1,5-a]pyrimidine-3-carboxamide trifluoroacetate] | 59
